Read-outs that look alike come from different tables or passages of the source. Where a SMILES comes first, the peptide text is derived from it. The star is where a group is joined. MeOSuc = COC(=O)CCC(=O)*; CH2Cl = ClC*
Experiments:
[1] = tested on: 95D; experiment: MTT cytotoxicity assay, 95D; assay type: cell-based; conditions: Homo sapiens, read-out: 95D IC50
[2] = tested on: SPC-A-1, SK-LU-1, and 95D human lung cancer cell lines; experiment: MTT cytotoxicity assay, three lung cancer cell lines together; assay type: cell-based; conditions: read-out: IC50 growth inhibition in the three lung cancer cells
[3] = tested on: SK-LU-1; experiment: MTT cytotoxicity assay, SK-LU-1; assay type: cell-based; conditions: Homo sapiens, SK-LU-1, read-out: SK-LU-1 IC50
[4] = target: Elastase (Sus scrofa, UniProt P00772); experiment: elastase inhibitory activity, spectrophotometric; assay type: biochemical
Chain of Elastase (P00772 27-266): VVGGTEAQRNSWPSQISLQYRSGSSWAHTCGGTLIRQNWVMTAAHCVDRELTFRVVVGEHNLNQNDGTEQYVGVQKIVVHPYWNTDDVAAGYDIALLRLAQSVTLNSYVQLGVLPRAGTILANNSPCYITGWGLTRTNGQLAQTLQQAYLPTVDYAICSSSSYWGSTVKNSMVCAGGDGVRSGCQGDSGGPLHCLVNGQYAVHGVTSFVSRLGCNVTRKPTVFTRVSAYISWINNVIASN

[5] = target: Collagenase; experiment: collagenase enzyme inhibition, spectrophotometric; assay type: biochemical; conditions: read-out: Collagenase IC50

Row | Structure (SMILES) | IC50 [1] [µM] | IC50 [2] [µM] | IC50 [3] [µM] | IC50 [4] [µM] | IC50 [5] [µM] | IC50 ([4]; read-out: Elastase IC50) [µM]
1 | COc1cccc2c1C(=O)c1c(O)c3c(c(O)c1C2=O)C[C@@](O)(C(=O)CO)C[C@@H]3O[C@H]1C[C@H](N)[C@H](O)[C@H](C)O1 [Doxorubicin, reference compound] | 25 | 25 to 30 | 25 |  |  | 
2 | OC[C@H](Cc1cccc(O)c1)[C@H](CO)Cc1cccc(O)c1 [Enterodiol] | 64.1 |  | 67.3 | 11.1 ± 1.87 | 104 ± 11.3 | 
3 | O=C1OC[C@H](Cc2cccc(O)c2)[C@H]1Cc1cccc(O)c1 [Enterolactone] | 41.1 |  | 45.8 | 22.5 ± 4.08 | 9.66 ± 1.52 | 
4 | COc1ccc(/C=C/C(=O)c2c(O)cc(OC)cc2OC)cc1 [Flavokawain A] | 22.4 | 12 to 30 | 23.3 | 27.3 ± 4.67 | 66.3 ± 7.95 | 
5 | COc1cc(O)c(C(=O)/C=C/c2ccccc2)c(OC)c1 [Flavokawain B] | 32.6 | 12 to 30 | 29.3 | 20.1 ± 2.36 | 71.1 ± 16 | 
6 | COc1cc(O)c(C(=O)/C=C/c2ccc(O)cc2)c(OC)c1 [Flavokawain C] | 21 | 12 to 30 | 22.7 | 17.6 ± 1.68 | 62.1 ± 9.43 | 
7 | COC(=O)CCC(=O)N[C@@H](C)C(=O)N[C@@H](C)C(=O)N1CCC[C@H]1C(=O)N[C@H](C(=O)CCl)C(C)C [N-(Methoxysuccinyl)-Ala-Ala-Pro-Val-chloromethyl ketone, reference compound] (MeOSuc-AAPV-CH2Cl) |  |  |  |  |  | 30.6 ± 3.25
8 | CC(C)C[C@H](NP(=O)(O)O[C@@H]1O[C@@H](C)[C@H](O)[C@@H](O)[C@H]1O)C(=O)N[C@@H](Cc1c[nH]c2ccccc12)C(=O)O [Phosphoramidon, reference compound] |  |  |  |  | 101 ± 14.8 | 
